# According to patent US20240218019A1, “METHODS AND COMPOSITIONS COMPRISING MHC CLASS I PEPTIDES” (BOARD OF REGENTS, THE UNIVERSITY OF TEXAS SYSTEM, priority 2021, published 2024):
# Test system: healthy donor PBMCs
# Test: IFNγ ELISpot assay with peptide-stimulated healthy donor PBMCs
# Assay type: cell-based, human
# Details: IFNγ ELISpot, healthy donor PBMCs
# Protocol: FIG. 10A-D. In vitro validation of predicted neoAgs immunogenicity using ELISpot IFNy assay. A) Schematic of peptide pool, stimulation, and cell culture workflow for ELISpot assays. PBMCs were exposed with the individual peptides from the immunogenic pools in the presence of IL-7 for 3 d, followed by expansion of neoAg-specific T cells in the presence of IL-2. On day 13, expanded cells (10^5 cells per well) were plated onto 96-well ELISpot plate coated with an IFNγ antibody and re-stimulated with the respective peptide for 24 h. IFNy secreting cells were analyzed as spot-forming units (SFUs), and the inventors chose ≥15 SFU produced by peptide stimulated cells over DMSO control cells as an indicator of the peptide immunogenicity. B) Quantification of IFNγ-secreting cells (SFU) obtained from ELISpot assay of 12 neoAg-stimulated PBMCs. ConcA and DMSO served as positive and negative controls. […] C) Selection of 110 predicted MHC-I neoAgs from 3 different categories and percentage of immunogenicity in vitro validation. […] “Most Immunogenic” refers to neoAgs selected from the top 100 prediction list of Most Immunogenic MHC-I neoAgs. “Most recurrent” refers to neoAgs selected from the top 100 prediction list of Most Recurrent MHC-I neoAgs. “Others” refers neoAgs that were predicted to have low immunogenicity and no recurrency. A total of 44 MHC-II neoAgs from 2 different categories were tested. […] “Most Immunogenic” refers to neoAgs selected from the top 100 prediction list of Most Immunogenic MHC-II neoAgs. “Most recurrent” refers to neoAgs selected from the top 100 prediction list of Most Recurrent MHC-II neoAgs. D) pMHC-pentamer staining. Expanded Pan-T cells from the healthy human donor were isolated and stained with WDTC1 neoAg peptide/A*02:01 Pentameric complexes and PerCP-conjugated CD8 antibody followed by flow cytometry analysis. Pan T-cells from healthy human donor PBMC (HLA-A*02:01) were isolated using negative magnetic selection. Isolated Pan T cells were stimulated and expanded with Opto-antigen presenting beads conjugated with WDTC1 neoAg-peptide. Viable Pan-T cells were gated based on FSC and SSC scatter and SYTOX Blue dead cells staining after doublet-exclusion. Flow cytometric plots representing CD8 positive (x-axis) and PE-biotin-pMHC-pentamer positive (y-axis) cells; unstained, unstimulated, and WDTC1 Opto-antigen presenting beads stimulated cells (left to right). The percentage of live CD8+ cells and CD8/WDTC1 neoAg-loaded MHC pentamer positive cells are shown.
# FIG. 19A-B. In vitro validation of the pooled predicted neoAgs immunogenicity using ELISpot IFNγ assay. A) Schematic of peptide pool, stimulation, and cell culture workflow for ELISpot assays. All 154 peptides were grouped into 15 peptide pools to stimulate PBMCs from 3 healthy human donors as shown in the illustrations. IFNy secreting cells were analyzed as spot-forming units (SFUs), indicative of immunogenicity. B) Quantification of IFNγ-secreting cells (SFU) obtained from ELISpot assay. Pools 2, 3, 5, 6, 9, and 12 produced at least 15 or higher SFU/10^5 cells from two different PBMCs. […] ConcA and DMSO served as positive and negative controls.
# Healthy donor PBMCs were stimulated with 15 peptide pools (Supplementary Table 13) to expand the neoAg-specific CD8^+ T-cells followed by quantitative ELISpot assays (FIG. 19A) to measure immunogenicity. […] To ascertain the immunogenicity of individual peptides within each immunogenic pool. a deconvolution protocol (see Methods) was implemented (FIG. 10A). […] Three percent of MHC-I neoAgs not predicted to be highly immunogenic or recurrent (Others). 5% of the top 100 most immunogenic MHC-II predicted neoags, and 6% of the top 100 most recurrent MHC-II predicted neoags elicited an immunogenic response as assessed by ELISpot assays. Additionally. 18% of all of these elispot-reactive neoags were also predicted from the validation set (FIG. 9C). […]
row,Substance,ELISpot result (positive response) for peptides tested with ELISpot
1,290 (ANRYFSPNFKVKLYF) [compound 290],No
2,354 (PVTPLRVQSVLLLGV) [compound 354],No

# Same assay, conditions: IFNγ ELISpot, healthy donor PBMCs stimulated with peptide pools
row,Substance,Elispot reactive
1,SINVLCVRASLIEKL,yes
2,LEVMLLNMGYRITGL,yes

# Same assay, conditions: IFNγ ELISpot, only peptides marked Tested
row,Substance,Elispot reactive
1,227 (EDIEFHFSLGWTMLV) [compound 227],No
2,229 (PALLLAEATHKASAL) [compound 229],No
3,RVPAHASTSL [compound 27],Yes
4,219 (IDNIKRNHNLALGRQ) [compound 219],No
5,224 (LINIHHRKNPLLPMR) [compound 224],No
6,239 (LEVMLLNMGYRITGL) [compound 239],No
7,220 (PKMQVTITLTSPIIR) [compound 220],No
8,KMMKILMIK [compound 19],No
9,APREGAAATPL [compound 18],No
10,IAQPSTSSL [compound 28],No
11,230 (SLDNVLRTMLRRFAR) [compound 230],No
12,234 (QLARFFPITPPVWHI) [compound 234],No
13,218 (RWMVLRNSWRAVARM) [compound 218],No

# Same assay, conditions: IFNγ ELISpot, peptide tested
row,Substance,Elispot reactive
1,FLWNSLLAV [compound 12],No
2,SMMPPPPAL [compound 2],No
3,LTFCTNATI [compound 200],No
4,FLMDGFDEL [compound 11],No
5,TAPVASASPKL [compound 17],No
6,ELLNPVTMNK [compound 207],No
7,HPARHLCRL [compound 208],No
8,RLYKYDHNFV [compound 213],No
9,RPVRGRGSL [compound 14],No
10,APSLTPMHSL [compound 209],No
11,LLNPVTMNK [compound 204],No
12,FLIDDNFKV [compound 10],Yes
13,KLFEKKYSV [compound 6],No
14,RPLCSSLGPL [compound 15],No
15,LLNPVTMNKA [compound 206],No
16,RQMLPTLSTL [compound 214],No
17,SLVRLSSCVPV [compound 4],No
18,VPACSHVPM [compound 202],No

# Same assay, conditions: IFNγ ELISpot, peptide-stimulated healthy donor PBMCs
Substance,ELISPOT result (positive Yes/No) for peptides marked Tested,ELISPOT result for peptides marked Tested with ELISPOT (Yes/No)
SPPLHLCQPL [compound 95],No,No
CRREYRVTM [compound 135],No,
MPCFTTALLL [compound 155],No,
KLYEAVPQL [compound 159],No,
KVPFFSALK [compound 169],No,
IAFSQLIGM [compound 167],No,
KRAFIHTPR [compound 131],No,
AGIGWGASY [compound 160],Yes,
MYFFWPCSL [compound 174],No,
HSWRFCTHIR [compound 154],No,
RMASTSCAA [compound 161],No,
RRPLRSWTPR [compound 152],No,
RLSCAPPPI [compound 138],Yes,
ASLAHSDNF [compound 106],No,
VLEDTLLKI [compound 158],Yes,
LKLCSKVSF [compound 132],No,
MSSIWGTMF [compound 140],No,
ATLVTPPTRY [compound 166],No,
KPLWRKSPL [compound 137],No,
TPRKLVGRAV [compound 162],No,
FLQEVFQA [compound 5],No,
WLPKMPPFV [compound 163],Yes,
HNVQGFHPY [compound 178],No,
SLINLTWTA [compound 66],,No
RFCPASCSGCY [compound 170],No,
RPACTCISM [compound 97],No,
FMNSTVFHV [compound 3],,No
KVDTHHLQV [compound 133],No,
RTHPYSPKK [compound 171],No,
SMAASPSPK [compound 179],No,

# Same assay, conditions: IFNγ ELISpot, peptide-stimulated healthy donor PBMCs; peptides grouped in 15 pools
row,Substance,Elispot reactive
1,VMANVLTLNL,yes
2,SLINLTWTA,yes
3,LLNPVTMNKA,yes
4,QTIEERLTW,yes
5,IQKSWTATTY,yes
6,FLIDDNFKV,yes
7,RFCPASCSGCY,yes
8,RVPAHASTSI,yes
9,RWMVLRNSWRAVARM,yes
10,FQVHFLKSGGLPLVL,yes
11,WLPKMPPFV,yes
12,QKKLMLLRLNLRKMC,yes
13,RLSCAPPPI,yes
14,RLYVPLYSSK,yes
15,AGIGWGASY,yes

# Same assay, conditions: IFNγ ELISpot, peptides marked Tested
row,Substance,Elispot reactive
1,RSAFPSRSL [compound 126],No
2,229 (PALLLAEATHKASAL) [compound 229],No
3,RVPAHASTSL [compound 27],Yes
4,LTHPAHQPL [compound 124],No
5,VGMRETTGL [compound 119],No
6,329 (EIQLTMNDSKHKLES) [compound 329],No
7,GMVPLIIPV [compound 116],No
8,TPQDSRQVL [compound 117],No
9,250 (TVEMRRWWTLVMEWK) [compound 250],No
10,239 (LEVMLLNMGYRITGL) [compound 239],No
11,318 (LRGGVIQSTRRRRRA) [compound 318],No
12,TSSPRTMSW [compound 120],No
13,KADQSESSL [compound 123],No
14,319 (PCASLLSTLSQPPPQ) [compound 319],No
15,322 (PVLFKADQSESSLSS) [compound 322],No
16,IAQPSTSSL [compound 28],No
17,RAWRRFPLL [compound 118],No
18,234 (QLARFFPITPPVWHI) [compound 234],No

# Same assay, conditions: IFNγ ELISpot; only peptides marked Elispot tested = Yes
row,Substance,Elispot reactive
1,RSAFPSRSL [compound 126],No
2,507 (VVHKKRGL) [compound 507],No

# Same assay, conditions: IFNγ secretion in healthy donor PBMCs vs unexposed control cells
row,Substance,Elispot reactive
1,RVPAHASTSL [compound 27],Yes
2,AGIGWGASY [compound 160],Yes
3,RLSCAPPPI [compound 138],Yes
4,VLEDTLLKI [compound 158],Yes
5,WLPKMPPFV [compound 163],Yes
6,FLIDDNFKV [compound 10],Yes

# Same assay, conditions: only neoAgs marked Tested with ELISPOT
row,Substance,ELISPOT positive
1,ASLAHSDNF [compound 106],No
2,RPACTCISM [compound 97],No
